{"source": "patent US20260284152A1", "about": "“COMPOSITION COMPRISING GV1001 FOR PREVENTING OR TREATING MACULAR DEGENERATION” (GEMVAX & KAEL CO., LTD., priority 2023, published 2026)", "key": {"[1]": {"tested_on": "C57BL/6 mice injected with NaIO3", "test": "Short-term administration in NaIO3 mouse model of age-related macular degeneration (RPE/choroid flat mount, phalloidin)", "format": "in vivo", "conditions": "NaIO3 20 mg/kg IV mice", "from_the_text": "Mice injected with sodium iodate (NaIO3) are used as a representative model of age-related macular degeneration. A mouse model of age-related macular degeneration was established by injecting NaIO3 into C57BL/6 mice, thereby inducing oxidative stress specific to retinal pigment epithelial cells and causing damage.\nTo determine whether the disruption of tight junctions in the retinal pigment epithelium caused by NaIO3 administration was inhibited by GV1001, the retinal pigment epithelium/choroid (RPE/choroid) was flat-mounted, and the junctions between epithelial cells were stained with phalloidin samples and observed using a confocal microscope.\nTo determine whether the disruption of tight junctions in the retinal pigment epithelial cell layer was inhibited by GV1001, the retinal pigment epithelial layer/choroid was flat-mounted, and the junctions between epithelial cells were stained with phalloidin and observed using a confocal microscope."}, "[2]": {"tested_on": "retinal pigment epithelial cell line ARPE-19", "test": "Reduction of reactive oxygen species (DCF-DA fluorescence) in H2O2-treated retinal pigment epithelial cells", "format": "cell-based", "from_the_text": "(§1) Reactive oxygen species were generated by treating retinal pigment epithelial cell line ARPE-19 with hydrogen peroxide (H2O2).\n(§2) Degenerated retinal pigment epithelial cells that appear in age-related macular degeneration were set as a model cell line, and epithelial loss of retinal pigment epithelial cells was induced.\nUsing DCF-DA as a reactive oxygen species dye sample, the change in the level of reactive oxygen species in retinal pigment epithelial cells (ARPE-19) induced by GV1001 was confirmed by fluorescence microscopy, and the results are shown in FIGS. 6A and 6B. DCF-DA fluorescence intensity increased when oxidative stress was induced by H2O2, but decreased by treatment with metformin, a positive control."}, "[3]": {"tested_on": "C57BL/6 mice injected with NaIO3", "test": "Long-term administration in NaIO3 mouse model of age-related macular degeneration (RPE/choroid flat mount, phalloidin)", "format": "in vivo", "conditions": "NaIO3 20 mg/kg IV mice; for Tight junction structure of the retinal pigment epithelium: long-term post-treatment; for Tight junction structure of the retinal pigment epithelial layer: long-term pre-treatment", "from_the_text": "A mouse model of age-related macular degeneration was established by injecting […] into C57BL/6 mice and inducing oxidative stress specifically in retinal pigment epithelial cells to cause damage.\nThe GV1001 dose determined through an efficacy evaluation test by short-term administration was used for efficacy evaluation in long-term administration.\nThe animal experimental group for verification of efficacy in reducing retinal pigment epithelial degeneration by long-term administration (3 months) of GV1001 was set up as shown in Table 4 below.\nTo determine whether the disruption of tight junctions in the retinal pigment epithelium was inhibited by GV1001, the retinal pigment epithelium/choroid was flat-mounted, and the junctions between epithelial cells were stained with phalloidin-stained samples and observed using a confocal microscope to determine the degree of disruption of tight junctions.\nTo determine whether the disruption of the tight junctions in the retinal pigment epithelium was reduced by long-term GV1001 administration, the retinal pigment epithelium/choroid was flat-mounted, and the junctions between epithelial cells were stained with phalloidin and observed using a confocal microscope."}, "[4]": {"tested_on": "retinal pigment epithelial cell line ARPE-19", "test": "Reduction of epithelial-mesenchymal transition (cadherin 1 / vimentin, confocal microscope) in H2O2-treated retinal pigment epithelial cells", "format": "cell-based", "conditions": "ARPE-19, H2O2 50 μM", "from_the_text": "as §1, §2\nThe degree of epithelial-mesenchymal transition, which indicates degeneration of retinal pigment epithelial cells, was confirmed by observing changes in cadherin 1 as an epithelial cell marker, and vimentin as a mesenchymal cell marker, using a confocal microscope, and the results are shown in FIG. 7."}}}
{"compound": "GV1001: A peptide consisting of 16 amino acids, having the amino acid sequence of SEQ ID NO: 1, derived from human telomerase (EARPALLTSRLRFIPK; UniProt O14746 611-626, looked up, fragment)", "values": [{"measurement": "Tight junction structure of the retinal pigment epithelial cell layer", "setting": "[1]; short-term post-treatment, 0.5 mg/kg SC three times within one week from 10 days after NaIO3", "result": "maintained"}, {"measurement": "Tight junction structure of the retinal pigment epithelial cell layer", "setting": "[1]; short-term post-treatment, 1.0 mg/kg SC three times within one week from 10 days after NaIO3", "result": "maintained"}, {"measurement": "Tight junction structure of the retinal pigment epithelial cell layer", "setting": "[1]; short-term pre-treatment, 0.1 mg/kg SC three times a week for two weeks", "result": "maintained"}, {"measurement": "DCF-DA fluorescence intensity (reactive oxygen species)", "setting": "[2]; ARPE-19, H2O2 50 μM, post-treatment (2 h after 24 h H2O2), 0.1 μM", "result": "decreased"}, {"measurement": "DCF-DA fluorescence intensity (reactive oxygen species)", "setting": "[2]; ARPE-19, H2O2 50 μM, post-treatment (2 h after 24 h H2O2), 10 μM", "result": "decreased"}, {"measurement": "DCF-DA fluorescence intensity (reactive oxygen species)", "setting": "[2]; ARPE-19, H2O2 50 μM, pre-treatment (2 h before 24 h H2O2), 0.01 μM", "result": "decreased"}, {"measurement": "Tight junction structure of the retinal pigment epithelium", "setting": "[3]; 0.1 mg/kg SC three times a week for 10 weeks", "result": "well maintained"}, {"measurement": "Tight junction structure of the retinal pigment epithelium", "setting": "[3]; 1.0 mg/kg SC three times a week for 10 weeks", "result": "well maintained"}, {"measurement": "Tight junction structure of the retinal pigment epithelial layer", "setting": "[3]; 0.1 mg/kg SC three times a week for 12 weeks", "result": "well maintained"}, {"measurement": "Tight junction structure of the retinal pigment epithelial layer", "setting": "[3]; 1.0 mg/kg SC three times a week for 12 weeks", "result": "well maintained"}, {"measurement": "Epithelial-mesenchymal transition (cadherin 1, vimentin)", "setting": "[4]; post-treatment, 10 μM", "result": "reduced"}, {"measurement": "Epithelial-mesenchymal transition (cadherin 1, vimentin)", "setting": "[4]; pre-treatment, 0.01 μM", "result": "reduced"}]}
{"compound": "CN(C)C(=N)N=C(N)N", "note": "[metformin, reference compound]", "values": [{"measurement": "Tight junction structure of the retinal pigment epithelial cell layer", "setting": "[1]; metformin 4 mg/mL in drinking water for 7 days before NaIO3", "result": "maintained"}, {"measurement": "DCF-DA fluorescence intensity (reactive oxygen species)", "setting": "[2]; ARPE-19, H2O2 50 μM oxidative stress, metformin 1 mM positive control", "result": "decreased"}, {"measurement": "Epithelial-mesenchymal transition (cadherin 1, vimentin)", "setting": "[4]; metformin 1 mM positive control", "result": "reduced"}]}
